The subject of test [1] is HDAC3 (gdf11 reporter gene). The experiment in a line: HDAC subtype reporter gene assay, gdf11-promoter luciferase in HeLa cells. Format: cell-based. The note with it: Homo sapiens, M-HeLa, read-out: % of SAHA Response for HDAC3 at 10 μM (gdf11 reporter gene), 24 hours. The procedure:
(§1) Measurement of inhibition of HDAC subtypes activity in cells by reporter gene assay: HDAC subtype selectivity inhibition assay of tested compounds was carried out by several reporter gene assays experiments. Briefly, HeLa cells were seeded in 96-well plates the day before transfection to give a confluence of 50-80%. Cells were transfected with one of reporter gene plasmids containing a promoter sequences or response elements upstream of a luciferase gene construct using FuGene6 transfection reagent according to the manufacturer's instructions (Roche). The promoters or response elements including p21-promoter, gdf11-promoter, MEF-binding element (MEF2), Nur77-promoter were fused upstream to the luciferase gene reporter construct. For normalizing the transfection efficiency, a GFP expression plasmid was cotransfected. Cells were allowed to express protein for 24 hours followed by addition of individual compounds or the vehicle (DMSO). 24 hours later, the cells were harvested and the luciferase assays were performed using the luciferase assay kit according to the manufacturer's instructions (Promega). To normalize the data from the luciferase assays, GFP activity from transfected cells was measured in a microtiter-plate reading fluorimeter capable of excitation at a wavelength at 485 nm and detection of emitted light at 527 nm.

Test [2] concerns HDAC class I (p21 reporter gene). Description: HDAC subtype reporter gene assay, p21-promoter luciferase in HeLa cells. In kind it is cell-based. The note with it: Homo sapiens, M-HeLa, read-out: % of SAHA Response for HDAC class I at 10 μM (p21 reporter gene), 24 hours. The procedure:
as §1
Background: In a reporter assay the amount or activity of a reporter protein is the signal.

Test [3] concerns HDAC7 (Nur77 reporter gene). The experiment in a line: HDAC subtype reporter gene assay, Nur77-promoter luciferase in HeLa cells. In kind it is cell-based. The note with it: Homo sapiens, M-HeLa, read-out: % of SAHA Response for HDAC7 at 10 μM (Nur77 reporter gene), 24 hours. The procedure:
as §1

In test [4] the test system is total HDAC enzyme (HeLa extract). The experiment in a line: In vitro inhibition of total HDAC enzyme activity (HDAC Fluorimetric Assay/Drug Discovery Kit, BIOMOL). Format: biochemical, human. The procedure:
Measurement of in vitro inhibition of total HDAC enzyme activity:
The in vitro inhibition of total HDAC enzyme was determined by HDAC Fluorimetric Assay/Drug Discovery Kit (BIOMOL) according to manufacture's instruction. • 1. Add Assay buffer, diluted trichostatin A or test inhibitor to appropriate wells of the microtiter plate. Following table lists examples of various assay types and the additions required for each test.
• 2. Add diluted HeLa extract or other HDAC sample to all wells except those that are to be “No Enzyme Controls” (Blank). • 3. Allow diluted Fluor de LyS™ Substrate and the samples in the microtiter plate to equilibrate to assay temperature (25° C.). • 4. Initiate HDAC reactions by adding diluted substrate (25 μl) to each well and mixing thoroughly. • 5. Allow HDAC reactions to proceed for desired length of time and then stop them by addition of Fluor de Lys™ Developer (50 μl). Incubate plate at room temperature (25° C.) for 10-15 min. • 6. Read samples in a microtiter-plate reading fluorimeter capable of excitation at a wavelength in the range 350-380 nm and detection of emitted light in the range 440-460 nm.

The subject of test [5] is lysine acetylation. Description: ELISA assay of acetylation of lysine in HeLa cells. In kind it is cell-based. The note with it: Homo sapiens, M-HeLa, 24 hours. The source says: Measurement of acetylation activity in cells on substrates:
ELISA Assay of Acetylation of Lysine
This assay is used to measure in vivo inhibition of HDAC6 in a cytoblot assay.
Materials and Reagent: • 1. 24-well tissue culture • 2. DMEM Medium containing 10% FBS • 3. 96-well white plate • 4. HeLa cell line • 5. M-PER Mammalian Protein Extraction Reagent (Pierce) • 6. Bradford assay reagent • 7. Acetylated-lysine polyclonal Antibody (Cell Signaling) • 8. HRP-labeled anti-rabbit IgG (Upstate) • 9. Coating Buffer: 15 mM Na2CO3, 35 mM NaHCO3 (pH 9.6) • 10. 10×PBS: 0.58M Na2HPO4, 0.17M NaH2PO4, 0.68M NaCl (pH 7.4) • 11. Wash Buffer:1×PBS containing 0.05% Tween-20 (PBST) • 12. Blocking Buffer:10 mg/ml bocine serum albumin (BSA) in PBS • 13. Antibody Dilution Buffer: 5 mg/ml BSA in PBST • 14. Enhanced chemiluminescence (ECL) (Amersham)
Procedure for performing the assay in 96-well plate: • 1. HeLa cells were seeded at a density of 60000 cells/500 μl/well in 24-well plate and incubated at 37° C. for 24 hours. • 2. Compounds were added and incubated for 24 hours at 37° C. • 3. Culture medium was removed, then washes the cells twice with ice-cold PBS. • 4. Add 100 μl/well of Protein Extraction Reagent and gently shake the mixture for 5 minutes. • 5. Collect the lysate to a 96-well plate respectively. Determine the concentration of protein by Bradford assay. • 6. Coat the wells of a 96-well white plate with 100 μl/well of 2.5 μg whole cell protein in Coating Buffer by incubating overnight at 4° C. • 7. Discard the uncoated proteins and wash the coated wells three times with 200 μl/well of PBST. • 8. Block coated wells by incubating the plate with 200 μl/well of Blocking Buffer for 1 hour at 37° C. • 9. Wells were aspirated and washed three times with 200 μl/well of PBST. • 10. After aspirating, 50 μl/well of Antibody Dilution Buffer containing acetylated-lysine polyclonal antibody (1:1000) were added to each well and incubated for 2 hour at 37° C. • 11. Wells were aspirated and washed three times with 200 μl/well of PBST. • 12. 50 μl/well of Antibody Dilution Buffer containing HRP-labeled anti-rabbit IgG (1:2000) were added to each well and incubated for 2 hour at 37° C. • 13. Wells were aspirated and washed three times with 200 μl/well of PBST. • 14. Wells were washed three times with 200 μl/well of purified water. • 15. Add 50 μl/well of ECL mixture, then read the plates on the plate reader.
(In general: ELISA stands for enzyme-linked immunosorbent assay.)

Test [6] deals with HDAC4/5 (MEF2 reporter gene). The experiment in a line: HDAC subtype reporter gene assay, MEF-binding element (MEF2) luciferase in HeLa cells. In kind it is cell-based. The note with it: Homo sapiens, M-HeLa, read-out: % of SAHA Response for HDAC4/5 at 10 μM (MEF2 reporter gene), 24 hours. How it is done:
as §1

A word on the fold induction: it is the signal under treatment as a multiple of the control signal. Read a low fold induction as little rise in signal.

With `Cc1[nH]c(/C=N/N=C2\C(=O)Nc3ccc(F)cc32)c(C)c1C(=O)NCCCCC(=O)Nc1ccccc1N` [Example 7, 5-(5-(((5-fluoro-2-oxoindolin-3-ylidene)hydrazono)methyl)-2,4-dimethyl-1H-pyrrole-3-carboxamido)-N-(2-aminophenyl)pentanamide], the Emax at 10 µM in test [1] was determined as 7%; in test [2] it was 11%; in test [3] it was 3%; in test [6] it was 23%. Also, the “% of Inhibition on Total HDAC Enzyme at 30 μM” value (from here on “% of Inhibition”) in test [4] is on record as 2%. In test [5], this molecule had a fold induction at 10 µM of 1.58.
For `Cc1[nH]c(/C=N/N=C2\C(=O)Nc3ccc(F)cc32)c(C)c1C(=O)NCCCCC(=O)Nc1ccc(F)cc1N` [Example 8, 5-(5-(((5-fluoro-2-oxoindolin-3-ylidene)hydrazono)methyl)-2,4-dimethyl-1H-pyrrole-3-carboxamido)-N-(2-amino-4-fluorophenyl)pentanamide], the Emax at 10 µM in test [1] is 5%; in test [2], 7%; in test [3] it was 4%; in test [6] it was 23%. Moreover, the “% of Inhibition” value in test [4] was −26%. In test [5], this molecule showed a fold induction at 10 µM of 2.01.
As for `Cc1[nH]c(/C=N/N=C2\C(=O)Nc3ccc(F)cc32)c(C)c1C(=O)NCCCCCC(=O)NO` [Example 11, 6-(5-(((5-fluoro-2-oxoindolin-3-ylidene)hydrazono)methyl)-2,4-dimethyl-1H-pyrrole-3-carboxamido)-N-hydroxyhexanamide], the Emax at 10 µM in test [1] is 49%; in test [2], 52%; in test [3] it was 9%; in test [6] it was 27%. For the same molecule, the “% of Inhibition” value in test [4] stood at 86%. In test [5], this molecule yielded a fold induction at 10 µM of 1.87.
As to `Cc1[nH]c(/C=N/N=C2\C(=O)Nc3ccc(F)cc32)c(C)c1C(=O)NCCCCCC(=O)Nc1ccc(F)cc1N` [Example 12, 6-(5-(((5-fluoro-2-oxoindolin-3-ylidene)hydrazono)methyl)-2,4-dimethyl-1H-pyrrole-3-carboxamido)-N-(2-amino-4-fluorophenyl)hexanamide], the Emax at 10 µM worked out at 6% in test [1], 9% in test [2], 6% in test [3] and 35% in test [6]. The “% of Inhibition” value in test [4] was found to be 14%. Also, the fold induction at 10 µM in test [5] was 1.84.
Consider `Cc1[nH]c(/C=N/N=C2\C(=O)Nc3ccc(F)cc32)c(C)c1C(=O)NCCCCCC(=O)Nc1ccccc1N` [Example 13, 6-(5-(((5-fluoro-2-oxoindolin-3-ylidene)hydrazono)methyl)-2,4-dimethyl-1H-pyrrole-3-carboxamido)-N-(2-aminophenyl)hexanamide], for which the Emax at 10 µM in test [1] was 13%; in test [2], 18%; in test [3], 5%; in test [6], 18%. The “% of Inhibition” value in test [4] came to 30%. Also, the fold induction at 10 µM in test [5] is 3.08.
With `Cc1[nH]c(/C=N/N=C2\C(=O)Nc3ccc(F)cc32)c(C)c1C(=O)NCCCCCCCC(=O)NO` [Example 26, 8-(5-(((5-fluoro-2-oxoindolin-3-ylidene)hydrazono)methyl)-2,4-dimethyl-1H-pyrrole-3-carboxamido)-N-hydroxyoctanamide], the Emax at 10 µM was 38% in test [1], 53% in test [2], 11% in test [3] and 20% in test [6]. Moreover, the “% of Inhibition” value in test [4] was found to be 98%. Also, the fold induction at 10 µM in test [5] is 2.42.
Consider `Cc1[nH]c(/C=N/N=C2\C(=O)Nc3ccc(F)cc32)c(C)c1C(=O)NCCCCCCCC(=O)Nc1ccc(F)cc1N` [Example 27, 8-(5-(((5-fluoro-2-oxoindolin-3-ylidene)hydrazono)methyl)-2,4-dimethyl-1H-pyrrole-3-carboxamido)-N-(2-amino-4-fluorophenyl)octanamide], for which the Emax at 10 µM turned out to be 6% in test [1], 8% in test [2], 6% in test [3] and 37% in test [6]. Further, the “% of Inhibition” value in test [4] worked out at 5%. In test [5], this molecule returned a fold induction at 10 µM of 2.13.
As to `Cc1[nH]c(/C=N/N=C2\C(=O)Nc3ccc(F)cc32)c(C)c1C(=O)NCCCCCCCC(=O)Nc1ccccc1N` [Example 28, 8-(5-(((5-fluoro-2-oxoindolin-3-ylidene)hydrazono)methyl)-2,4-dimethyl-1H-pyrrole-3-carboxamido)-N-(2-aminophenyl)octanamide], the Emax at 10 µM in test [1] was 26%; in test [2], 36%; in test [3], 16%; in test [6], 32%. Besides, the “% of Inhibition” value in test [4] is recorded as 18%. The molecule further gave a fold induction at 10 µM in test [5] of 1.7.
Regarding `O=C(CCCCCNC(=O)c1ccc(/C=N/N=C2\C(=O)Nc3ccc(F)cc32)cc1)NO` [Example 31, 6-(4-(((5-fluoro-2-oxoindolin-3-ylidene)hydrazono)methyl)benzamido)-N-hydroxyhexanamide], the Emax at 10 µM came to 36% in test [1], 39% in test [2], 8% in test [3] and 30% in test [6]. In addition, the “% of Inhibition” value in test [4] is 89%. The molecule also had a fold induction at 10 µM in test [5] of 1.67.
In the case of `Nc1ccccc1NC(=O)CCCCCNC(=O)c1ccc(/C=N/N=C2\C(=O)Nc3ccc(F)cc32)cc1` [Example 32, 6-(4-(((5-fluoro-2-oxoindolin-3-ylidene)hydrazono)methyl)benzamido)-N-(2-aminophenyl)hexanamide], the Emax at 10 µM came out at 12% in test [1], 17% in test [2], 5% in test [3] and 28% in test [6]. Besides, the “% of Inhibition” value in test [4] is recorded as 20%. In addition, in test [5], the fold induction at 10 µM came out at 1.32.

Values taken from patent publication US7863315B2, “2-indolinone derivatives as selective histone deacetylase inhibitors” (Shenzhen Chipscreen Biosciences, Ltd., priority 2008, dated 2011).
